The record followed here is patent publication US6342498B1, “Arylpiperazines as serotonin reuptake inhibitors and 5-HT1Dα antagonists” (Eli Lilly and Company, priority 1997, dated 2002).

Structures can show the parent of a compound that is named as a salt.

The term melting point denotes the temperature of the solid-liquid transition. `COc1ccccc1N1CCN(CCCCCN2CC=C(c3c[nH]c4cc(F)ccc34)CC2)CC1` [Example 16, 1-(2-methoxyphenyl)-4-(5-(4-(6-fluoroindole-3-yl)-1,2,3,6-tetrahydropyridin-1-yl)pent-1-yl)piperazine] displayed a melting point of 69 to 71 °C.
For the compound `COc1ccccc1N1CCN(CCCCCCN2CCC(c3c[nH]c4cc(Cl)ccc34)CC2)CC1` (as salt: hydrochloride) [Example 21, 1-(2-methoxyphenyl)-4-(6-(4-(6-chloroindol-3-yl)-piperidin-1-yl)hex-1-yl)piperazine trihydrochloride], the melting point fell in the range of 185 to 187 °C.
`COc1ccccc1N1CCN(CCCCCN2CCC(c3c[nH]c4cc(F)ccc34)CC2)CC1` (as salt: hydrochloride) [Example 19, 1-(2-methoxyphenyl) -4-(5-(4-(6-fluoroindole-3-yl) -piperidin-1-yl)pent-1-yl)piperazine trihydrochloride] showed a melting point of 113 to 115 °C.
Consider `COc1ccccc1N1CCN(CCNCCCN2CC=C(c3c[nH]c4cc(Cl)ccc34)CC2)CC1` [Example 7, N-(2-(4-(2-methoxyphenyl)piperazin-1-yl)eth-1-yl)-N-3-(4-(6-chloroindol-3-yl)-1,2,3,6-tetrahydropyridin-1-yl)prop-1-ylamine], for which the melting point was in the range of 71 to 73 °C.
Next, `COc1ccccc1N1CCN(CCCCN2CC=C(c3c[nH]c4cc(Cl)ccc34)CC2)CC1`: 131 to 133 °C.
Under `COc1ccccc1N1CCN(CCCCCCN2CC=C(c3c[nH]c4cc(F)ccc34)CC2)CC1` [Example 14, 1-(2-methoxyphenyl)-4-(6-(4-(6-fluoroindole-3-yl)-1,2,3,6-tetrahydropyridin-1-yl)hex-1-yl)piperazine] stands 105 to 107 °C; under `COc1ccccc1N1CCN(CCNCCCN2CCC(c3c[nH]c4cc(Cl)ccc34)CC2)CC1` (as salt: hydrochloride) [Example 10, N-(2-(4-(2-methoxyphenyl)piperazin-1-yl)eth-1-yl)-N-3-(4-(6-chloroindol-3-yl)-piperidin-1-yl)prop-1-ylamine tetrahydrochloride], 91 to 95 °C.
As for `COc1ccccc1N1CCN(CCCCCCN2CCC(c3c[nH]c4cc(F)ccc34)CC2)CC1` (as salt: hydrochloride) [Example 22, 1-(2-methoxyphenyl)-4-(6-(4-(6-fluoroindol-3-yl)-piperidin-1-yl)hex-1-yl)piperazine trihydrochloride], the melting point lay within 145 to 147 °C.
Next, `COc1ccccc1N1CCN(CCNCCN2CC=C(c3c[nH]c4cc(Cl)ccc34)CC2)CC1` [Example 12, N-(2-(4-(2-methoxyphenyl)piperazin-1-yl)eth-1-yl), N-2-(4-(6-chloroindol-3-yl)-1,2,3,6-tetrahydropyridin-1-yl)eth-1-ylamine]: 78 to 80 °C.
The compound `COc1ccccc1N1CCN(CCNCCCN2CC=C(c3c[nH]c4cc(F)ccc34)CC2)CC1` [Example 6, N-(2-(4-(2-methoxyphenyl)piperazin-1-yl)eth-1-yl)-N3-(4-(6-fluoroindol-3-yl)-1,2,3,6-tetrahydropyridin-1-yl)prop-1-ylamine] returned a melting point of 82 to 84 °C.
`COc1ccccc1N1CCN(CCCCCN2CC=C(c3c[nH]c4cc(Cl)ccc34)CC2)CC1` [Example 15, 1-(2-methoxyphenyl)-4-(5-(4-(6-chloroindole-3-yl)-1,2,3,6-tetrahydropyridin-1-yl)pent-1-yl)piperazine] yielded a melting point of 126 to 128 °C.
Under `COc1ccccc1N1CCN(CCCCCN2CCC(c3c[nH]c4cc(Cl)ccc34)CC2)CC1` (as salt: hydrochloride) [Example 20, 1-(2-methoxyphenyl) -4-(5-(4-(6-chloroindole-3-yl) -piperidin-1-yl)pent-1-yl)piperazine trihydrochloride] stands 139 to 141 °C.
For `COc1ccccc1N1CCN(CCNC(=O)CCN2CC=C(c3c[nH]c4cc(Cl)ccc34)CC2)CC1` [Example 2, N-(2-(4-(2-methoxyphenyl)piperazin-1-yl)eth-1-yl)-3-(4-(6-chloroindol-3-yl)-1,2,3,6-tetrahydropyridin-1-yl)propanamide], the melting point lay in the range of 181 to 183 °C.
Consider `COc1ccccc1N1CCN(CCNC(=O)CCN2CC=C(c3c[nH]c4cc(F)ccc34)CC2)CC1` [Example 1, N-(2-(4-(2-methoxyphenyl)piperazin-1-yl)eth-1-yl)-3-(4-(6-fluoroindol-3-yl)-1,2,3,6-tetrahydropyridin-1-yl)propanamide], for which the melting point lay in the range of 175 to 177 °C.
